How the values were obtained:
[1] = tested on: Sprague Dawley (SD) rats; test: Ophthalmic examination; assay type: in vivo, rat; details: 2.4 mg/kg/day; both genders; end of dosing phase and recovery phase
Procedure: The examination was conducted on rats in control and 2.4 mg/kg/day groups at the end of dosing phase (Day 27) and at the end of recovery phase (Recovery day 27). The mydriasis (eye instillation, 1-2 drops/eye) was conducted using Mydrin-P (compound tropicamide eye drops) before examination. Binocular indirect ophthalmoscope was used to examine conjunctiva, cornea, iris, lens, anterior chamber, posterior chamber and fundus.

[2] = Body weight, 4-week subacute toxicity study; assay type: in vivo, Sprague Dawley (SD) rats
Procedure: Body weight was recorded twice a week during the dosing phase and then once a week during the recovery phase. Terminal body weight was recorded before each necropsy for calculating the organ weight ratios.

[3] = female rats, 0.6 mg/kg/day, Day 6
[4] = female rats, 0.6 mg/kg/day, Day 9
[5] = female rats, 0.6 mg/kg/day, Day 13
[6] = female rats, 0.6 mg/kg/day, Day 16
[7] = female rats, 0.6 mg/kg/day, Day 20
[8] = female rats, 0.6 mg/kg/day, Day 23
[9] = female rats, 0.6 mg/kg/day, Day 27
[10] = female rats, 0.6 mg/kg/day, Prior to 1st dosing
[11] = female rats, 0.6 mg/kg/day, Recovery day 5
[12] = female rats, 0.6 mg/kg/day, Recovery day 12
[13] = female rats, 0.6 mg/kg/day, Recovery day 19
[14] = female rats, 0.6 mg/kg/day, Recovery day 26
[15] = female rats, 1.2 mg/kg/day, Day 6
[16] = female rats, 1.2 mg/kg/day, Day 9
[17] = female rats, 1.2 mg/kg/day, Day 13
[18] = female rats, 1.2 mg/kg/day, Day 16
[19] = female rats, 1.2 mg/kg/day, Day 20
[20] = female rats, 1.2 mg/kg/day, Day 23
[21] = female rats, 1.2 mg/kg/day, Day 27
[22] = female rats, 1.2 mg/kg/day, Prior to 1st dosing
[23] = female rats, 1.2 mg/kg/day, Recovery day 5
[24] = female rats, 1.2 mg/kg/day, Recovery day 12
[25] = female rats, 1.2 mg/kg/day, Recovery day 19
[26] = female rats, 1.2 mg/kg/day, Recovery day 26
[27] = female rats, 2.4 mg/kg/day, Day 6
[28] = female rats, 2.4 mg/kg/day, Day 9
[29] = female rats, 2.4 mg/kg/day, Day 13
[30] = female rats, 2.4 mg/kg/day, Day 16
[31] = female rats, 2.4 mg/kg/day, Day 20
[32] = female rats, 2.4 mg/kg/day, Day 23
[33] = female rats, 2.4 mg/kg/day, Day 27
[34] = female rats, 2.4 mg/kg/day, Prior to 1st dosing
[35] = female rats, 2.4 mg/kg/day, Recovery day 5
[36] = female rats, 2.4 mg/kg/day, Recovery day 12
[37] = female rats, 2.4 mg/kg/day, Recovery day 19
[38] = female rats, 2.4 mg/kg/day, Recovery day 26
[39] = male rats, 0.6 mg/kg/day, Day 6
[40] = male rats, 0.6 mg/kg/day, Day 9
[41] = male rats, 0.6 mg/kg/day, Day 13
[42] = male rats, 0.6 mg/kg/day, Day 16
[43] = male rats, 0.6 mg/kg/day, Day 20
[44] = male rats, 0.6 mg/kg/day, Day 23
[45] = male rats, 0.6 mg/kg/day, Day 27
[46] = male rats, 0.6 mg/kg/day, Prior to 1st dosing
[47] = male rats, 0.6 mg/kg/day, Recovery day 5
[48] = male rats, 0.6 mg/kg/day, Recovery day 12
[49] = male rats, 0.6 mg/kg/day, Recovery day 19
[50] = male rats, 0.6 mg/kg/day, Recovery day 26
[51] = male rats, 1.2 mg/kg/day, Day 6
[52] = male rats, 1.2 mg/kg/day, Day 9
[53] = male rats, 1.2 mg/kg/day, Day 13
[54] = male rats, 1.2 mg/kg/day, Day 16
[55] = male rats, 1.2 mg/kg/day, Day 20
[56] = male rats, 1.2 mg/kg/day, Day 23
[57] = male rats, 1.2 mg/kg/day, Day 27
[58] = male rats, 1.2 mg/kg/day, Prior to 1st dosing
[59] = male rats, 1.2 mg/kg/day, Recovery day 5
[60] = male rats, 1.2 mg/kg/day, Recovery day 12
[61] = male rats, 1.2 mg/kg/day, Recovery day 19
[62] = male rats, 1.2 mg/kg/day, Recovery day 26
[63] = male rats, 2.4 mg/kg/day, Day 6
[64] = male rats, 2.4 mg/kg/day, Day 9
[65] = male rats, 2.4 mg/kg/day, Day 13
[66] = male rats, 2.4 mg/kg/day, Day 16
[67] = male rats, 2.4 mg/kg/day, Day 20
[68] = male rats, 2.4 mg/kg/day, Day 23
[69] = male rats, 2.4 mg/kg/day, Day 27
[70] = male rats, 2.4 mg/kg/day, Prior to 1st dosing
[71] = male rats, 2.4 mg/kg/day, Recovery day 5
[72] = male rats, 2.4 mg/kg/day, Recovery day 12
[73] = male rats, 2.4 mg/kg/day, Recovery day 19
[74] = male rats, 2.4 mg/kg/day, Recovery day 26

Compound: Fc1ccc([C@]2(CCNCc3cccc(Cl)c3)CCO[C@]3(CCOC3)C2)nc1 [LPM3480392]
- Ophthalmic examination findings [1]: No abnormalities
- Body weight [2, 3]: 194.0 ± 11.4 g
- Body weight change rate [2, 3]: 4.64%
- Body weight [2, 4]: 201.1 ± 13.7 g
- Body weight change rate [2, 4]: 5.62%
- Body weight [2, 5]: 209.5 ± 13.4 g
- Body weight change rate [2, 5]: 7.05%
- Body weight [2, 6]: 214.4 ± 13.2 g
- Body weight change rate [2, 6]: 6.19%
- Body weight [2, 7]: 224.2 ± 15.1 g
- Body weight change rate [2, 7]: 6.91%
- Body weight [2, 8]: 228.1 ± 15.3 g
- Body weight change rate [2, 8]: 5.65%
- Body weight [2, 9]: 236.2 ± 15.3 g
- Body weight change rate [2, 9]: 8.05%
- Body weight [2, 10]: 176.9 ± 7.3 g
- Body weight change rate [2, 10]: −0.67%
- Body weight [2, 11]: 243.5 ± 9.3 g
- Body weight change rate [2, 11]: 5.96%
- Body weight [2, 12]: 251.6 ± 10.2 g
- Body weight change rate [2, 12]: 6.38%
- Body weight [2, 13]: 258.8 ± 12.5 g
- Body weight change rate [2, 13]: 2.70%
- Body weight [2, 14]: 265.5 ± 15.7 g
- Body weight change rate [2, 14]: 3.11%
- Body weight [2, 15]: 194.9 ± 10.5 g
- Body weight change rate [2, 15]: 5.12%
- Body weight [2, 16]: 200.1 ± 12.1 g
- Body weight change rate [2, 16]: 5.09%
- Body weight [2, 17]: 215.3 ± 11.3 g
- Body weight change rate [2, 17]: 10.02%
- Body weight [2, 18]: 218.9 ± 12.3 g
- Body weight change rate [2, 18]: 8.42%
- Body weight [2, 19]: 221.5 ± 14.8 g
- Body weight change rate [2, 19]: 5.63%
- Body weight [2, 20]: 232.4 ± 16.4 g
- Body weight change rate [2, 20]: 7.64%
- Body weight [2, 21]: 237.2 ± 15.4 g
- Body weight change rate [2, 21]: 8.51%
- Body weight [2, 22]: 175.3 ± 7.7 g
- Body weight change rate [2, 22]: −1.57%
- Body weight [2, 23]: 237.7 ± 13.0 g
- Body weight change rate [2, 23]: 3.44%
- Body weight [2, 24]: 244.8 ± 13.2 g
- Body weight change rate [2, 24]: 3.51%
- Body weight [2, 25]: 259.9 ± 16.5 g
- Body weight change rate [2, 25]: 3.13%
- Body weight [2, 26]: 261.8 ± 22.7 g
- Body weight change rate [2, 26]: 1.67%
- Body weight [2, 27]: 194.7 ± 11.9 g
- Body weight change rate [2, 27]: 5.02%
- Body weight [2, 28]: 198.8 ± 14.7 g
- Body weight change rate [2, 28]: 4.41%
- Body weight [2, 29]: 211.2 ± 13.0 g
- Body weight change rate [2, 29]: 7.92%
- Body weight [2, 30]: 209.1 ± 13.2 g
- Body weight change rate [2, 30]: 3.57%
- Body weight [2, 31]: 220.8 ± 15.5 g
- Body weight change rate [2, 31]: 5.29%
- Body weight [2, 32]: 221.7 ± 19.8 g
- Body weight change rate [2, 32]: 2.69%
- Body weight [2, 33]: 230.9 ± 19.3 g
- Body weight change rate [2, 33]: 5.63%
- Body weight [2, 34]: 179.1 ± 8.3 g
- Body weight change rate [2, 34]: 0.56%
- Body weight [2, 35]: 230.1 ± 19.1 g
- Body weight change rate [2, 35]: 0.13%
- Body weight [2, 36]: 241.1 ± 21.0 g
- Body weight change rate [2, 36]: 1.95%
- Body weight [2, 37]: 253.1 ± 25.8 g
- Body weight change rate [2, 37]: 0.44%
- Body weight [2, 38]: 261.1 ± 25.5 g
- Body weight change rate [2, 38]: 1.40%
- Body weight [2, 39]: 247.1 ± 9.6 g
- Body weight change rate [2, 39]: 1.31%
- Body weight [2, 40]: 268.8 ± 11.6 g
- Body weight change rate [2, 40]: 2.32%
- Body weight [2, 41]: 292.6 ± 13.5 g
- Body weight change rate [2, 41]: 0.62%
- Body weight [2, 42]: 300.8 ± 12.5 g
- Body weight change rate [2, 42]: −2.12%
- Body weight [2, 43]: 321.4 ± 15.8 g
- Body weight change rate [2, 43]: −0.22%
- Body weight [2, 44]: 332.6 ± 17.3 g
- Body weight change rate [2, 44]: −0.33%
- Body weight [2, 45]: 349.9 ± 20.1 g
- Body weight change rate [2, 45]: −0.20%
- Body weight [2, 46]: 213.2 ± 11.1 g
- Body weight change rate [2, 46]: 0.66%
- Body weight [2, 47]: 367.7 ± 23.5 g
- Body weight change rate [2, 47]: −4.86%
- Body weight [2, 48]: 395.5 ± 24.5 g
- Body weight change rate [2, 48]: −4.63%
- Body weight [2, 49]: 415.6 ± 25.4 g
- Body weight change rate [2, 49]: −5.29%
- Body weight [2, 50]: 442.1 ± 24.4 g
- Body weight change rate [2, 50]: −4.22%
- Body weight [2, 51]: 243.6 ± 12.3 g
- Body weight change rate [2, 51]: −0.12%
- Body weight [2, 52]: 247.3 ± 10.6 g
- Body weight change rate [2, 52]: −5.86%
- Body weight [2, 53]: 281.5 ± 15.7 g
- Body weight change rate [2, 53]: −3.20%
- Body weight [2, 54]: 297.1 ± 19.6 g
- Body weight change rate [2, 54]: −3.32%
- Body weight [2, 55]: 313.4 ± 22.6 g
- Body weight change rate [2, 55]: −2.70%
- Body weight [2, 56]: 325.9 ± 21.5 g
- Body weight change rate [2, 56]: −2.34%
- Body weight [2, 57]: 339.3 ± 23.2 g
- Body weight change rate [2, 57]: −3.22%
- Body weight [2, 58]: 213.2 ± 9.4 g
- Body weight change rate [2, 58]: 0.66%
- Body weight [2, 59]: 361.2 ± 14.2 g
- Body weight change rate [2, 59]: −6.55%
- Body weight [2, 60]: 388.0 ± 14.5 g
- Body weight change rate [2, 60]: −6.44%
- Body weight [2, 61]: 416.4 ± 19.3 g
- Body weight change rate [2, 61]: −5.10%
- Body weight [2, 62]: 444.3 ± 23.9 g
- Body weight change rate [2, 62]: −3.75%
- Body weight [2, 63]: 234.0 ± 21.8 g
- Body weight change rate [2, 63]: −4.06%
- Body weight [2, 64]: 249.9 ± 31.9 g
- Body weight change rate [2, 64]: −4.87%
- Body weight [2, 65]: 272.4 ± 27.9 g
- Body weight change rate [2, 65]: −6.33%
- Body weight [2, 66]: 281.1 ± 31.2 g
- Body weight change rate [2, 66]: −8.53%
- Body weight [2, 67]: 297.6 ± 36.8 g
- Body weight change rate [2, 67]: −7.61%
- Body weight [2, 68]: 299.3 ± 36.1 g
- Body weight change rate [2, 68]: −10.31%
- Body weight [2, 69]: 315.4 ± 36.4 g
- Body weight change rate [2, 69]: −10.04%
- Body weight [2, 70]: 213.9 ± 12.9 g
- Body weight change rate [2, 70]: 0.99%
- Body weight [2, 71]: 329.2 ± 48.5 g
- Body weight change rate [2, 71]: −14.83%
- Body weight [2, 72]: 365.9 ± 50.0 g
- Body weight change rate [2, 72]: −11.77%
- Body weight [2, 73]: 386.7 ± 51.8 g
- Body weight change rate [2, 73]: −11.87%
- Body weight [2, 74]: 413.2 ± 56.3 g
- Body weight change rate [2, 74]: −10.49%

From publication PMC10436550, “Subacute toxicity evaluations of LPM3480392 in rats, a full µ-opioid receptor biased agonist” (Frontiers in Pharmacology, 2023)
